Laboratory results: patent US6294526A, “Use of flavone derivatives for induction of β-lactam-sensitivity of MRSA” (priority 1998, dated 2001)
Like-named read-outs stand apart in the source and are kept apart here.

Assays:
MRSA [1] = test: antibacterial activity (MIC) by agar plate dilution method, MRSA strains; format: cell-based, methicillin-resistant Staphylococcus aureus; details: Staphylococcus aureus, 20 h; for MIC: range over strains
Protocol: (§1) The screening of the present invention may be carried out according to the agar plate dilution method designated by the Japan Society of Chemotherapy (Chemotherapy 29(1), 76-79 (1981)). Mueller-Hinton agar base semi-synthetic medium may be used for a plate culture medium for a sensitivity test together with an inoculating bacteria solution which may be prepared by culturing bacteria to be tested at 37° C. for 20 hours diluted with 8.5% by isotonic sodium chloride solution to 10^6 CFU/ml. Diluted β-lactam solutions are prepared by two times serial dilution. 1 ml of the diluted β-lactam solution and 1 ml of a predetermined concentration of a sample to be tested are added to 8 ml of the plate culture medium for a sensitivity test. To the resultant plate culture medium for sensitivity test, the bacteria are inoculated using a microplanter (SAKUMASEISAKUSYO Co.), cultured for 20 hours at 37° C. followed by assessing for a minimum inhibition concentration (MIC).
(§2) (A) Antibacterial activities of ether extract from Scutellaria barbata, SB-1 (isolated from Scutellaria barbata), apigenin (authentic sample) and luteolin (authentic sample) were shown in Table 1.
(§3) Flavones were dissolved in methanol and the others were dissolved in 0.1 N NaOH. A method for determination of antibacterial activity is, as described above, an agar plate dilution method designated by the Japan Society of Chemotherapy (Chemotherapy 29(1), 76-79 (1981)) to determine MIC value. MIC80 is a concentration at which a strain is prohibited to proliferate by 80% and MIC50 is a concentration at which a strain is prohibited to proliferate by 50%.

MSSA = test: antibacterial activity (MIC) by agar plate dilution method, MSSA strains; format: cell-based, Methicillin-sensitive Staphylooccus aureus; details: Staphylococcus aureus, 20 h; for MIC: range over strains
Protocol: as §1, §2, §3

MRSA [2] = test: antibacterial activity of antibiotics alone and in the presence of apigenin (4 μg/ml), MRSA; format: cell-based, methicillin-resistant Staphylococcus aureus; details: Staphylococcus aureus, MRSA, 20 h, MRSA
Protocol: as §1
(D) Then use of 4 μg/ml of apigenin and other antibiotics at the same time was studied. The antibiotics are penicillin , ampicillin, cephalothin, cefoxitin, cefuroxime, cefotaxime, vancomycin, streptomycin, chloramphenicol, kanamycin, erythromycin, nalixic acid and tetracycline.

[3] = MRSA (20 strains), read-out: MIC50
[4] = MRSA, MRSA (20 strains), read-out: MIC
[5] = MSSA (7 strains), read-out: MIC50
[6] = MSSA, MSSA (7 strains), read-out: MIC
[7] = antibiotic with Apigenin (4 μg/ml)

SMILES	MIC50 (MRSA [1]; [3]) [µg/mL]	MIC (MRSA [1]; [4]) [µg/mL]	MIC50 (MSSA; [5]) [µg/mL]	MIC (MSSA; [6]) [µg/mL]	further results
Oc1cc(O)c2c(c1)O[C@H](c1ccc(O)c(O)c1)[C@@H](O)C2 [(+)-Catechin, (+)-catechin]	> 250	> 250	> 250	> 250	–
COc1ccc(-c2cc(=O)c3c(O)cc(O)cc3o2)cc1 [Acacetin, acacetin]	> 250	> 250	> 250	> 250	–
CC1(C)S[C@@H]2[C@H](NC(=O)[C@H](N)c3ccccc3)C(=O)N2[C@H]1C(=O)O [Ampicillin, ampicillin]	–	–	–	–	MIC (MRSA [2]; Antibiotics alone, read-out: MIC): 2 to 125 µg/mL; MIC50 (MRSA [2]; Antibiotics alone, read-out: MIC50): 31.3 µg/mL; MIC (MRSA [2]; antibiotic with Apigenin (4 μg/ml), read-out: MIC): 2 to 62.5 µg/mL; MIC50 (MRSA [2]; antibiotic with Apigenin (4 μg/ml), read-out: MIC50): 31.3 µg/mL
O=c1cc(-c2ccccc2)oc2cc(O)c(O)c(O)c12 [Baicalein, baicalein]	> 250	> 250	> 250	> 250	–
O=C(N[C@H](CO)[C@H](O)c1ccc([N+](=O)[O-])cc1)C(Cl)Cl [Chloramphenicol, chloramphenicol]	–	–	–	–	MIC (MRSA [2]; Antibiotics alone): 2 to 62.5 µg/mL; MIC50 (MRSA [2]; Antibiotics alone): 7.8 µg/mL; MIC (MRSA [2]; [7]): 3.9 to 31.3 µg/mL; MIC50 (MRSA [2]; [7]): 7.8 µg/mL
CC[C@H]1OC(=O)[C@H](C)[C@@H](O[C@H]2C[C@@](C)(OC)[C@@H](O)[C@H](C)O2)[C@H](C)[C@@H](O[C@@H]2O[C@H](C)C[C@H](N(C)C)[C@H]2O)[C@](C)(O)C[C@@H](C)C(=O)[C@H](C)[C@@H](O)[C@]1(C)O [Erythromycin, erythromycin]	–	–	–	–	MIC50 (MRSA [2]; Antibiotics alone): > 250 µg/mL; MIC50 (MRSA [2]; [7]): > 250 µg/mL
NC[C@H]1O[C@H](O[C@H]2[C@H](O)[C@@H](O[C@H]3O[C@H](CO)[C@@H](O)[C@H](N)[C@H]3O)[C@H](N)C[C@@H]2N)[C@H](O)[C@@H](O)[C@@H]1O [Kanamycin, kanamycin]	–	–	–	–	MIC50 (MRSA [2]; Antibiotics alone): > 250 µg/mL; MIC50 (MRSA [2]; [7]): 250 µg/mL
O=C1C[C@@H](c2ccc(O)cc2)Oc2cc(O)ccc21 [Liquiritigenin, liquiritigenin]	–	–	–	–	MIC50 (MRSA [1]; MRSA): > 250 µg/mL; MIC50 (MSSA; MSSA): > 250 µg/mL
CCn1cc(C(=O)O)c(=O)c2ccc(C)nc21 [Nalidixic acid]	–	–	–	–	MIC50 (MRSA [2]; Antibiotics alone): > 250 µg/mL; MIC50 (MRSA [2]; [7]): > 250 µg/mL
CC1(C)S[C@@H]2[C@H](NC(=O)Cc3ccccc3)C(=O)N2[C@H]1C(=O)O [Penicillin G, penicillin G]	–	–	–	–	MIC (MRSA [2]; Antibiotics alone): 0.49 to 125 µg/mL; MIC50 (MRSA [2]; Antibiotics alone): 31.3 µg/mL; MIC (MRSA [2]; [7]): 0.49 to 62.5 µg/mL; MIC50 (MRSA [2]; [7]): 15.6 µg/mL
O=c1c(O)c(-c2ccc(O)c(O)c2)oc2cc(O)c(O)c(O)c12 [Quercetagetin, quercetagetin]	–	–	–	–	MIC50 (MRSA [1]; MRSA): > 250 µg/mL; MIC (MRSA [1]; MRSA, MRSA (20 strains)): > 250 µg/mL; MIC50 (MSSA; MSSA): > 250 µg/mL; MIC (MSSA; MSSA, MSSA (7 strains)): > 250 µg/mL

Second part, led by results:

MIC50 (MRSA [1]; [3]) [µg/mL]	MIC (MRSA [1]; [4]) [µg/mL]	MIC50 (MSSA; [5]) [µg/mL]	MIC (MSSA; [6]) [µg/mL]	SMILES	further results
> 250	> 250	> 250	> 250	O=c1cc(-c2ccccc2)oc2cc(O)cc(O)c12 [Chrysin, chrysin]	–
> 250	> 250	> 250	> 250	O=c1c(-c2ccc(O)cc2)coc2cc(O)ccc12 [Daidzein, daidzein]	–
> 250	> 250	> 250	> 250	COc1ccc(-c2coc3cc(O)ccc3c2=O)cc1 [Formononetin, formononetin]	–
> 250	> 250	> 250	> 250	O=c1c(-c2ccc(O)cc2)coc2cc(O)cc(O)c12 [Genistein, genistein]	–
> 250	> 250	> 250	> 250	COc1ccc([C@@H]2CC(=O)c3c(O)cc(O)cc3O2)cc1O [Hesperetin, hesperetin]	–
> 250	–	> 250	> 250	O=c1c(O)c(-c2cc(O)c(O)c(O)c2)oc2cc(O)cc(O)c12 [Myricetin, myricetin]	–
> 250	> 250	> 250	> 250	O=C1C[C@@H](c2ccc(O)cc2)Oc2cc(O)cc(O)c21 [Naringenin, naringenin]	–
> 250	> 250	> 250	> 250	COc1cc(O)c2c(=O)c(O)c(-c3ccc(O)c(O)c3)oc2c1 [Rhamnetin, rhamnetin]	–
